# Patent US20260001914A1, “MACROCYCLIC PEPTIDES TARGETING KRAS” (Merck Sharp & Dohme LLC, priority 2022, published 2026)
# *1 amine or outer side, *2 acyl side, *3 side chain or, on linkers, in order; H or OH if unused. Where a SMILES comes first, the peptide text is derived from it. Bridges are numbered along the chain shown (N, C = ends). [ ]: non-standard residue; d: D form. Phe(4-guanidino) = N=C(N)Nc1ccc(C[C@H](N)C(=O)O)cc1; X72 = CC1(C)NC(=N)N(CCC[C@H](N[*:1])C(=O)[*:2])C1=O; X76 = CN(CCC[C@@H](C(=O)[*:2])N(C)[*:1])S(C)(=O)=O; Phe(3,4-Cl2) = N[C@@H](Cc1ccc(Cl)c(Cl)c1)C(=O)O; Ala(pyrimidin-5-yl) = N[C@@H](Cc1cncnc1)C(=O)O; NMePhe(3-Me) = CN[C@@H](Cc1cccc(C)c1)C(=O)O; X51 = COc1cc(C[C@H](N[*:1])C(=O)[*:2])ncn1; X62 = O=C([C@@H]1CC[C@H](N[*:1])C1)[*:2]; X15 = O=C([C@H](Cc1cnccc1F)N[*:1])[*:2]; NMeAha = CN[C@@H](CCN=[N+]=[N-])C(=O)O; 1Nal = N[C@@H](Cc1cccc2ccccc12)C(=O)O; Ala(4-THP) = N[C@@H](CC1CCOCC1)C(=O)O; Phe(2-F) = N[C@@H](Cc1ccccc1F)C(=O)O; X31 = O=C([C@H](CCC1CC1)N[*:1])[*:2]; NMe3Pal = CN[C@@H](Cc1cccnc1)C(=O)O; NMeY = CN[C@@H](Cc1ccc(O)cc1)C(=O)O; X1 = O=C(C12CC(CN[*:1])(C1)C2)[*:2]; X17 = O=C([C@H](CCCCF)N[*:1])[*:2]; Ala(cPr) = N[C@@H](CC1CC1)C(=O)O; NMeF = CN[C@@H](Cc1ccccc1)C(=O)O; PhLac = O=C(O)[C@@H](O)Cc1ccccc1; 3Pal = N[C@@H](Cc1cccnc1)C(=O)O; d3Pal = N[C@H](Cc1cccnc1)C(=O)O; X50 = CC(CCCC(=O)[*:2])N[*:1]; Ahp(2) = CCCCC[C@H](N)C(=O)O; Cba = N[C@@H](CC1CCC1)C(=O)O; hLeu = CC(C)CC[C@H](N)C(=O)O; NMeS = CN[C@@H](CO)C(=O)O; αMeC = C[C@](N)(CS)C(=O)O; NMeA = CN[C@@H](C)C(=O)O; Nle = CCCC[C@H](N)C(=O)O; AEEA = NCCOCCOCC(=O)O
# Biological target: KRAS-G12D protein (Homo sapiens, UniProt P01116, G12D)
# Sequence (P01116 1-188 isoform P01116-2 G12D): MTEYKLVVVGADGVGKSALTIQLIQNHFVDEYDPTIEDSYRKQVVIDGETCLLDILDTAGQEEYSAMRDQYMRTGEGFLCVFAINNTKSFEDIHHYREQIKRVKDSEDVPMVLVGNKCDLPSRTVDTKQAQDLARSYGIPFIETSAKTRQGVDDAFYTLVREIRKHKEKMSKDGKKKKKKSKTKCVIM
# Test: SOS-mediated nucleotide exchange assay (BODIPY-GDP / Tb-streptavidin TR-FRET)
# Format: biochemical
row,SMILES,EC50 [nM]
1,"CCCC[C@@H]1NC(=O)[C@H](Cc2cnc(C#N)nc2)NC(=O)[C@H](C)N(C)C(=O)[C@H](Cc2ccccc2)OC(=O)C23CC(CNC(=O)[C@H](Cc4ccccc4)N(C)C(=O)[C@H](CCCC)NC(=O)[C@H](Cc4ccccc4F)NC1=O)(C2)C3 (single isomer, unassigned) [compound 314, cyclo(FLac-NMeA-AlaPyrim4CN-Nle-Phe2F-Nle-NMeF-amBCP)]",24.8
2,"CCCC[C@@H]1NC(=O)[C@H](Cc2cccnc2)NC(=O)[C@H](CCCNC(=N)N)NC(=O)[C@H](Cc2ccccc2)NC(=O)CSC[C@@](C)(C(N)=O)NC(=O)[C@H](Cc2ccccc2)N(C)C(=O)[C@H](CCCC)NC(=O)[C@H](Cc2ccccc2F)NC1=O [compound 160, cyclo(F-R-3Pal-Nle-Phe2F-Nle-NMeF-aMeCl-ClAc)] ({CH2CO}-FR[3Pal][Nle][Phe(2-F)][Nle][NMeF][αMeC]-NH2; thioether N-8)",12.8
3,"CCCC[C@@H]1NC(=O)[C@H](Cc2cccnc2)NC(=O)[C@H](CCCNC(=N)N)NC(=O)[C@H](Cc2ccccc2)NC(=O)CSC[C@@](C)(C(=O)N(C)C)NC(=O)[C@H](Cc2cccnc2)N(C)C(=O)[C@H](CCCC)NC(=O)[C@H](Cc2ccccc2F)NC1=O [compound 184, cyclo(F-R-3Pal-Nle-Phe2F-Nle-NMe3Pal-aMeC7-ClAc)] ({CH2CO}-FR[3Pal][Nle][Phe(2-F)][Nle][NMe3Pal][αMeC]-NMe2; thioether N-8)",728
4,"CCCC[C@@H]1NC(=O)[C@H](Cc2cncnc2)NC(=O)[C@H](C)N(C)C(=O)[C@H](Cc2ccccc2)OC(=O)C23CC(CNC(=O)[C@H](Cc4ccccc4)N(C)C(=O)[C@H](CCCC)NC(=O)[C@H](Cc4ccccc4F)NC1=O)(C2)C3 [compound 230, cyclo(FLac-NMeA-PyrimAla-Nle-Phe2F-Nle-NMeF-amBCP)] (cyclo([NMeA][Ala(pyrimidin-5-yl)][Nle][Phe(2-F)][Nle][NMeF][X1][PhLac]))",17.4
5,"CCCC[C@@H]1NC(=O)[C@H](Cc2ccc(O)cc2)NC(=O)[C@H](CC(C)C)NC(=O)[C@H](Cc2ccc(O)cc2)NC(=O)[C@H](CCCNC(=N)N)NC(=O)[C@H](Cc2ccccc2)NC(=O)CSCCNC(=O)[C@H](Cc2ccccc2)N(C)C1=O [compound 69, cyclo(F-R-Y-L-Y-Nle-NMeF-Cysteamine-ClAc)]",1470
6,"CCCCC[C@@H]1NC(=O)[C@H](Cc2ccc(O)cc2)NC(=O)[C@H](CC(C)C)NC(=O)[C@H](Cc2ccc(O)cc2)NC(=O)[C@H](CCCNC(=N)N)NC(=O)[C@H](Cc2ccccc2)NC(=O)CSC[C@@H](C(=O)NCCOCCOCC(N)=O)NC(=O)[C@H](Cc2ccccc2)N(C)C1=O [compound 57, cyclo(F-R-Y-L-Y-Ahp-NMeF-C3-ClAc)] ({CH2CO}-FRYLY[Ahp(2)][NMeF]C[AEEA]-NH2; thioether N-8)",482
7,"CON=C1C[C@@H](Cc2ccccc2)C(=O)N(C)[C@@H](C)C(=O)N[C@@H](Cc2cncnc2)C(=O)N[C@@H](CC2CC2)C(=O)N[C@@H](Cc2ccccc2F)C(=O)N[C@@H](CCC(C)(F)F)C(=O)N(C)[C@@H](Cc2ccccc2)C(=O)NCC23CC1(C2)C3 (single isomer, unassigned) [compound 177, cyclo(CPhe-NMeA-PyrimAla-cPrA-Phe2F-Nle3F2-NMeF-MeOximamBCP)]",51
8,"CCCC[C@@H]1NC(=O)[C@H](Cc2cncnc2)NC(=O)[C@H](CCN=[N+]=[N-])N(C)C(=O)[C@H](Cc2ccccc2)OC(=O)C23CC(CNC(=O)[C@H](Cc4cccnc4)N(C)C(=O)[C@H](CCCC)NC(=O)[C@H](Cc4ccccc4F)NC1=O)(C2)C3 [compound 242, cyclo(FLac-NMeDabN3-PyrimAla-Nle-Phe2F-Nle-NMe3Pal-amBCP)] (cyclo([NMe3Pal][X1][PhLac][NMeAha][Ala(pyrimidin-5-yl)][Nle][Phe(2-F)][Nle]))",80.9
9,"CCCC[C@@H]1NC(=O)[C@H](Cc2cccnc2)NC(=O)[C@H](CCCN(C)S(C)(=O)=O)N(C)C(=O)[C@H](Cc2ccccc2)OC(=O)C23CC(CNC(=O)[C@H](Cc4cccnc4)N(C)C(=O)[C@H](CCCC)NC(=O)[C@H](Cc4ccccc4F)NC1=O)(C2)C3 [compound 406, cyclo(FLac-NMeOmSuf-3Pal-Nle-Phe2F-Nle-NMe3Pal-amBCP)] (cyclo([3Pal][Nle][Phe(2-F)][Nle][NMe3Pal][X1][PhLac][X76]))",26
10,"CCCC[C@@H]1NC(=O)[C@H](Cc2cncnc2)NC(=O)[C@H](C)N(C)C(=O)[C@H](Cc2ccccc2)OC(=O)C23CC(CNC(=O)[C@H](Cc4ccc(OC)cc4)N(C)C(=O)[C@H](CCCC)NC(=O)[C@H](Cc4ccccc4F)NC1=O)(C2)C3 [compound 175, cyclo(FLac-NMeA-PyrimAla-Nle-Phe2F-Nle-NMeYOMe-amBCP)] (cyclo([NMeA][Ala(pyrimidin-5-yl)][Nle][Phe(2-F)][Nle][NMeY](Me)[X1][PhLac]))",11
11,"CCCC[C@@H]1NC(=O)[C@H](Cc2cccnc2)NC(=O)[C@H](CO)N(C)C(=O)[C@H](Cc2ccccc2)OC(=O)C23CC(CNC(=O)[C@H](Cc4cccnc4)N(C)C(=O)[C@H](CCCC)NC(=O)[C@H](Cc4ccccc4F)NC1=O)(C2)C3 [compound 118, cyclo(FLac-NMeS-3Pal-Nle-Phe2F-Nle-NMe3Pal-amBCP)] (cyclo([3Pal][Nle][Phe(2-F)][Nle][NMe3Pal][X1][PhLac][NMeS]))",466
12,"CCCC[C@@H]1NC(=O)[C@H](Cc2ccc(Cl)c(Cl)c2)NC(=O)[C@H](C)N(C)C(=O)[C@H](Cc2ccccc2)OC(=O)C23CC(CNC(=O)[C@H](Cc4ccccc4)N(C)C(=O)[C@H](CCCC)NC(=O)[C@H](Cc4ccccc4F)NC1=O)(C2)C3 [compound 309, cyclo(FLac-NMeA-Phe34Cl2-Nle-Phe2F-Nle-NMeF-amBCP)] (cyclo([NMeA][Phe(3,4-Cl2)][Nle][Phe(2-F)][Nle][NMeF][X1][PhLac]))",108
13,"CCCC[C@@H]1NC(=O)[C@H](Cc2cccnc2)NC(=O)[C@H](CCCNC(=N)N)NC(=O)[C@H](Cc2ccccc2)NC(=O)[C@@H]2CC[C@@H](C2)NC(=O)[C@H](Cc2ccccc2)N(C)C(=O)[C@H](CCCC)NC(=O)[C@H](Cc2ccc(OC)cc2)NC1=O [compound 203, cyclo(F-R-3Pal-Nle-TyrOMe-Nle-NMeF-bhcLeu)] (cyclo(FR[3Pal][Nle]Y(Me)[Nle][NMeF][X62]))",193
14,"Cc1cccc(C[C@H]2C(=O)NCC34CC(C3)(C4)C(=O)O[C@@H](Cc3ccccc3)C(=O)N(C)[C@@H](C)C(=O)N[C@@H](Cc3cncnc3)C(=O)N[C@@H](CC3CC3)C(=O)N[C@@H](Cc3cnccc3F)C(=O)N[C@@H](CCC(C)C)C(=O)N2C)c1 [compound 278, cyclo(FLac-NMeA-PyrimAla-cPrA-3Pal6F-hL-NMePhe3Me-amBCP)] (cyclo([Ala(cPr)][X15][hLeu][NMePhe(3-Me)][X1][PhLac][NMeA][Ala(pyrimidin-5-yl)]))",2
15,"CCCC[C@@H]1NC(=O)[C@H](COC)NC(=O)[C@H](CC2CCC2)NC(=O)[C@H](Cc2cccnc2)NC(=O)[C@H](CCCNC(=N)N)NC(=O)[C@H](Cc2ccccc2)NC(=O)CSC[C@@](C)(C(N)=O)NC(=O)[C@H](Cc2ccccc2)N(C)C1=O [compound 52, cyclo(F-R-3Pal-cBuA-SerOMe-Nle-NMeF-aMeCl-ClAc)] ({CH2CO}-FR[3Pal][Cba]S(Me)[Nle][NMeF][αMeC]-NH2; thioether N-8)",943
16,"CCCC[C@@H]1NC(=O)[C@H](Cc2ccccc2F)NC(=O)[C@H](CC2CCC2)NC(=O)[C@@H](Cc2cccnc2)NC(=O)[C@H](CCCN2C(=N)NC(C)(C)C2=O)NC(=O)[C@H](Cc2ccccc2)NC(=O)C23CC(CNC(=O)[C@H](Cc4cccnc4)N(C)C1=O)(C2)C3 [compound 105, cyclo(F-baceNva-d3Pal-cBuA-Phe2F-Nle-NMe3Pal-amBCP)] (cyclo(F[X72][d3Pal][Cba][Phe(2-F)][Nle][NMe3Pal][X1]))",7.56
17,"CCCC[C@@H]1NC(=O)[C@H](Cc2cncnc2)NC(=O)[C@H](C)N(C)C(=O)[C@H](Cc2ccccc2)OC(=O)C23CC(CNC(=O)[C@H](Cc4ccccc4)N(C)C(=O)[C@H](CCCCF)NC(=O)[C@H](Cc4ccccc4F)NC1=O)(C2)C3 [compound 131, cyclo(FLac-NMeA-PyrimAla-Nle-Phe2F-NleF-NMeF-amBCP)] (cyclo([NMeA][Ala(pyrimidin-5-yl)][Nle][Phe(2-F)][X17][NMeF][X1][PhLac]))",10.1
18,"CCCC[C@@H]1NC(=O)[C@H](Cc2ccc(NC(=N)N)cc2)NC(=O)[C@H](CCCNC(=N)N)NC(=O)[C@H](Cc2ccccc2)NC(=O)CCCC(C)NC(=O)[C@H](Cc2ccccc2)N(C)C(=O)[C@H](CCCC)NC(=O)[C@H](Cc2ccc(OC)cc2)NC1=O (stereo partly drawn) [compound 93, cyclo(F-R-Phe4Gn-Nle-TyrOMe-Nle-NMeF-SamHex)] (cyclo(FR[Phe(4-guanidino)][Nle]Y(Me)[Nle][NMeF][X50]))",142
19,"CCCC[C@@H]1NC(=O)[C@H](Cc2cc(OC)ncn2)NC(=O)[C@H](C)N(C)C(=O)[C@H](Cc2ccccc2)OC(=O)C23CC(CNC(=O)[C@H](Cc4ccccc4)N(C)C(=O)[C@H](CCCC)NC(=O)[C@H](Cc4ccccc4F)NC1=O)(C2)C3 [compound 306, cyclo(FLac-NMeA-Ala6Pyrim4OMe-Nle-Phe2F-Nle-NMeF-amBCP)] (cyclo([NMeA][X51][Nle][Phe(2-F)][Nle][NMeF][X1][PhLac]))",7000
20,"CCCC[C@@H]1NC(=O)[C@H](Cc2ccc(O)cc2)NC(=O)[C@H](CC2CCOCC2)NC(=O)[C@H](Cc2ccc(NC(=N)N)cc2)NC(=O)[C@H](CCCNC(=N)N)NC(=O)[C@H](Cc2cccc3ccccc23)NC(=O)CSC[C@H](C(=O)O)NC(=O)[C@H](Cc2ccccc2)N(C)C1=O [compound 147, cyclo(INal-R-Phe4Gn-AlaTHP4-Y-Nle-NMeF-dC-ClAc)] ({CH2CO}-[1Nal]R[Phe(4-guanidino)][Ala(4-THP)]Y[Nle][NMeF][dC]-OH; thioether N-8)",512
21,"Cc1cccc(C[C@H]2C(=O)NCC34CC(C3)(C4)C(=O)O[C@@H](Cc3ccccc3)C(=O)N(C)[C@@H](C)C(=O)N[C@@H](Cc3cncnc3)C(=O)N[C@@H](CC3CC3)C(=O)N[C@@H](Cc3ccccc3F)C(=O)N[C@@H](CCC3CC3)C(=O)N2C)c1 [compound 334, cyclo(FLac-NMeA-PyrimAla-cPrA-Phe2F-hcPrA-NMePhe3Me-amBCP)] (cyclo([Ala(cPr)][Phe(2-F)][X31][NMePhe(3-Me)][X1][PhLac][NMeA][Ala(pyrimidin-5-yl)]))",2
